Assays:
[1] = test system: HepG2; assay: Antiproliferative activity against human HepG2 cells after 72 hrs by MTT assay; assay type: functional, cell-based; conditions: HepG2, 72 h
[2] = test system: MGC-803; assay: Antiproliferative activity against human MGC803 cells after 72 hrs by MTT assay; assay type: functional, cell-based; conditions: MGC-803, 72 h
[3] = test system: SK-N-SH; assay: Antiproliferative activity against human SK-N-SH cells after 72 hrs by MTT assay; assay type: functional, cell-based
[4] = test system: GES1; assay: Cytotoxicity against human GES-1 cells assessed as cell growth inhibition after 72 hrs by MTT assay; assay type: cell-based; conditions: GES1, 72 h

Row | Structure (SMILES) | IC50 [1] | IC50 [2] | IC50 [3] | IC50 [4]
1 | COc1ccc(/C=C/C(=O)c2ccc(OCc3cn(Cc4ccccc4)nn3)cc2)c(OC)c1OC | 9.35 µM | 37.2 µM | 14.5 µM | –
2 | O=C(/C=C/c1cc(Cl)cc(Cl)c1)c1ccc(NCc2cn(Cc3ccccc3)nn2)cc1 | 23.4 µM | 16.8 µM | 20.5 µM | –
3 | O=C(/C=C/c1ccccc1F)c1ccc(OCc2cn(Cc3ccccc3)nn2)cc1 | 18.4 µM | 50.6 µM | 28.6 µM | –
4 | O=C(/C=C/c1cccnc1)c1ccc(OCc2cn(Cc3ccccc3)nn2)cc1 | 5.22 µM | 10.2 µM | 6.37 µM | –
5 | O=C(/C=C/c1ccco1)c1ccc(NCc2cn(Cc3ccccc3)nn2)cc1 | 42.5 µM | 37.3 µM | 39.2 µM | –
6 | COc1cc(OC)c(/C=C/C(=O)c2ccc(NCc3cn(Cc4ccccc4)nn3)cc2)c(OC)c1 | 10.4 µM | 6.26 µM | 6.26 µM | –
7 | O=C(/C=C/c1ccncc1)c1ccc(OCc2cn(Cc3ccccc3)nn2)cc1 | 11.4 µM | 26.1 µM | 7.43 µM | –
8 | Nc1ccc(C(=O)/C=C/c2ccco2)cc1 | > 64 µM | > 64 µM | 48.9 µM | –
9 | O=C(/C=C/c1cccnc1)c1ccc(NCc2cn(Cc3ccccc3C(F)(F)F)nn2)cc1 | 6.92 µM | 3.15 µM | 7.29 µM | 54.7 µM
10 | O=C(/C=C/c1cccnc1)c1ccc(NCc2cn(Cc3ccc(C(F)(F)F)cc3)nn2)cc1 | 9.24 µM | 7.19 µM | 7.26 µM | –
11 | Nc1ccc(C(=O)/C=C/c2cccs2)cc1 | > 64 µM | > 64 µM | > 64 µM | –
12 | COc1cccc(Cn2cc(CNc3ccc(C(=O)/C=C/c4ccc(Cl)cc4)cc3)nn2)c1 | 34.7 µM | 38.6 µM | 21.2 µM | –
13 | O=C(/C=C/c1ccc([N+](=O)[O-])cc1)c1ccc(OCc2cn(Cc3ccccc3)nn2)cc1 | 24.4 µM | 29.8 µM | 11.6 µM | –

Reference: ChEMBL document CHEMBL4431295 (Medchemcomm, 2016)
